Entries after “also recorded” stand apart in the source; their conditions may differ.
Assays:
[1] = target: T1, apoaequorin (Aequorea victoria, UniProt P07164); assay: Fluorescence spectra of semi-synthetic BFP (coelenteramide analogue + apoaequorin, CaCl2); assay type: physicochemical; settings: 10 mM CaCl2 buffer, excitation 337 nm
T1 construct: purchased Chisso Corporation
Method in brief: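 Apoaequorin (0.2 mg) was mixed with coelenteramide analogue in 50 mM Tris-HCl pH 7.6, 10 mM CaCl2, 1 mM DTT and held 16 h at 4° C. Analogue-alone controls were run at 8 μg/ml final in the same buffer with 10 mM EDTA or CaCl2. Spectra were recorded at 25° C., excitation 337 nm.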

[2] = Fluorescence spectra of coelenteramide analogue alone (absence of apoaequorin); assay type: physicochemical; settings: analogue alone 8 μg/ml
Method in brief: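 Coelenteramide analogue at 8 μg/ml without apoaequorin in 50 mM Tris-HCl pH 7.6 with 1 mM DTT plus either 10 mM EDTA or 10 mM CaCl2. Fluorescence spectra recorded at 25° C, excitation 337 nm, 3 nm bandwidth.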

[3] = target: T1, apoaequorin; assay: Fluorescence spectra of semi-synthetic gFP (coelenteramide analogue + apoaequorin, EDTA); assay type: physicochemical; settings: 10 mM EDTA buffer, excitation 337 nm
Method in brief: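 Apoaequorin (0.2 mg) incubated with coelenteramide analogue 16 h at 4 °C in 50 mM Tris-HCl pH 7.6, 10 mM EDTA, 1 mM DTT to form semi-synthetic gFP. Emission spectra at 25 °C, excitation 337 nm. Analogue-alone controls at 8 μg/ml final, in EDTA or 10 mM CaCl2 buffer.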

[4] = target: T1, apoaequorin; assay: Luciferase activity of semi-synthetic BFPs using coelenterazine as substrate; assay type: biochemical; settings: Imax, 10 mM CaCl2, 10 seconds, BFP from CTMD = 100
Protocol: To confirm that semi-synthetic BFPs prepared from coelenteramide analogues and apoaequorin, which are novel fluorescent proteins having luciferase activity, the luminescence reaction was performed in the presence of calcium ions, using coelenterazine as a light emitting substrate. After 5 μl (corresponding to 1 μg protein) of a solution of semi-synthetic BFP prepared in EXAMPLE 12 was added to 100 μl of 50 mM Tris-HC 1 (pH 7.6) containing 10 mM CaCl2, 1 μl of a solution of coelenterazine (1 μg/μl) in ethanol was mixed with the solution to start the luminescence reaction. The luminescence activity was measured for 10 seconds on a luminometer luminescencer-PSN AB2200 (manufactured by Atto Co., Ltd.). The luminescence activity was determined by repeating the measurement of luminescence activity described above twice and expressed in terms of the maximum luminescence intensity (Imax) of luminescence activity.

[5] = target: T1, apoaequorin; assay: Calcium standard curve with semi-synthetic aequorins; assay type: biochemical; settings: FIG. 3; Imax versus calcium concentration
Protocol: In 9 ml of 50 mM Tris-HCl (pH 7.6), 1 ml of 1 g/L calcium carbonate standard solution (manufactured by Wako Pure Chemicals) was diluted to prepare 10^−3 M calcium carbonate solution. One milliliter of the resulting 10^−3 M calcium carbonate solution was taken and added to 9 ml of 50 mM Tris-HCl (pH 7.6) to prepare 10^−4 M calcium carbonate solution. Next, 3 ml of the resulting 10^−4 M calcium carbonate solution was taken and added to 6 ml of 50 mM Tris-HCl (pH 7.6) to prepare […] calcium carbonate solution. One milliliter from the 10^−4 M calcium carbonate solution obtained was added to 9 ml of 50 mM Tris-HCl (pH 7.6) to prepare 10^−5 M calcium carbonate solution. Then, 3 ml of the resulting 10^−5 M calcium carbonate solution was taken and added to 6 ml of 50 mM Tris-HCl (pH 7.6) to prepare 3×10^−5 M calcium carbonate solution. A dilution series was prepared by successively repeating the procedures described above to give the 10^−3 M to 10^−8 M calcium standard solutions.
In 5 ml of 50 mM Tris-HCl (pH 7.6) containing 10 mM DTT and 30 mM EDTA, 5 mg of recombinant apoaequorin (manufactured by Chisso Corporation) was dissolved and 100 μg of coelenterazine analogue dissolved in ethanol in an amount of 1.2-fold equivalent was added to the solution. The mixture was allowed to stand at 4° C. overnight to convert into semi-synthetic aequorin. The resulting semi-synthetic aequorin was concentrated using Amicon Ultra-4 (manufactured by Millipore, Inc., molecular weight cut-off: 10,000) to remove an excessive of coelenterazine analogue. The mixture was then washed 3 times with 3 ml of 30 mM Tris-HCl (pH 7.6) containing 0.05 mM EDTA to give the solution of semi-synthetic aequorin containing 0.05 mM EDTA. This semi-synthetic aequorin solution (2.5 mg/ml) was diluted with 20 mM Tris-HCl (pH 7.6) containing 0.1% BSA (manufactured by Sigma), 0.01 mM EDTA and 150 mM NaCl.
The calcium standard solution prepared as above was dispensed into a 96-well microplate (Nunc #236108) at 50 μl/well and 10 μl of the diluted semi-synthetic aequorin solution was injected into 50 μl of various concentration of calcium standard solution. The luminescence intensity was measured for 60 seconds on a luminescence plate reader Centro LB960 (manufactured by Berthold) and expressed in terms of the maximum intensity (Imax) of luminescence. The luminescence intensity was measured on each semi-synthetic aequorin in the same procedures. Semi-synthetic aequorins for practically use were chosen by the maximum intensity (Imax) of luminescence and the calcium standard curve of semi-synthetic aequorin was prepared.

[6] = target: T2, Renilla luciferase (Renilla reniformis, UniProt P27652); assay: Substrate specificity and luminescence activity of Renilla luciferase; assay type: biochemical; settings: measured for 10 seconds, coelenterazine = 100
T2 construct: made in house
T2 sequence (P27652 1-311): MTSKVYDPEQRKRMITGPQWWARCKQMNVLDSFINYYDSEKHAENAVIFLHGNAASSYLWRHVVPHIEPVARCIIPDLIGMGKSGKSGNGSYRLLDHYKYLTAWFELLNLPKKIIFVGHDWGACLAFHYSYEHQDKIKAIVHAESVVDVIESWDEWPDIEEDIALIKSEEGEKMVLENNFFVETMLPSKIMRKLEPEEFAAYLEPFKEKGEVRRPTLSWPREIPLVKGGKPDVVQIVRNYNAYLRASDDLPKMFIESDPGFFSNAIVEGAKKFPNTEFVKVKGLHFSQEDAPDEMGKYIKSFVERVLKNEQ
Protocol: Renilla luciferase was purified by the method described in Inouye, S. & Shimomura, O. Biochem. Biophys. Res. Commun. (1997) 233: 349-353, and used for assay.
(§1) After 1 μl of Renilla luciferase (0.45 mg/ml) was dissolved in 100 μl of 30 mM Tris-HCl (pH 7.6) containing 10 mM EDTA, 1 μl of a solution of coelenterazine or its analogue (1 μg/μl) in ethanol was added to the solution to start the luminescence reaction. The luminescence activity was measured for 10 seconds on a luminometer luminescencer-PSN AB2200 (manufactured by Atto Co., Ltd.). The luminescence activity was determined by repeating the measurement of luminescence activity described above 3 times and expressed in terms of the maximum luminescence intensity (Imax) of luminescence activity.

[7] = target: T1, apoaequorin; assay: Luminescence patterns of semi-synthetic aequorins, half decay time; assay type: biochemical; settings: for Half decay time: semi-synthetic aequorin, time in which luminescence becomes half of maximum, patterns measured for 60 seconds
Protocol: A solution of the regenerated semi-synthetic aequorin was diluted to 10-fold with 20 mM Tris-HCl (pH 7.6) containing 0.1% BSA (manufactured by Sigma, Inc.), 0.01 mM EDTA and 150 mM NaCl. The dilution was dispensed into a 96-well microplate (Nunc #236108) at 5 μl/well. The luminescence reaction was triggered by injecting 50 mM Tris-HCl (pH 7.6) containing 50 mM calcium chloride solution at 100 μl/well. The luminescence patterns for 60 seconds were measured to determine half decay time of the luminescence (a time period in which the luminescence becomes half of the maximum luminescence intensity).

[8] = target: T1, apoaequorin; assay: Fluorescence spectra of fluorescent proteins formed from semi-synthetic aequorins by Ca2+; assay type: physicochemical; settings: for Maximum fluorescence wavelength λmax (nm) / Relative fluorescence intensity (rlu): fluorescent protein generated by calcium from semi-synthetic aequorin, excitation 330 nm, 25° C.; for fluorescence spectra of fluorescent proteins versus emission spectra of semi-synthetic aequorins, in words: same coelenterazine analogue
Protocol: The fluorescence spectra of novel fluorescent proteins formed by the Ca^2+-triggerd reaction from semi-synthetic aequorins in EXAMPLE 3 were measured at 25° C. in a quartz cell (10 mm light path length) using a Jasco FP-6500 spectrofluorometer (excitation wavelength: 330 nm, emission/excitation bandwidth: 3 nm; response: 0.5 sec, scan speed, 1000 nm/min). The fluorescence spectra measured were corrected.

[9] = target: T3, 19 kDa protein from Oplophorus luciferase (Oplophorus gracilirostris, UniProt Q9GV45); assay: Substrate specificity and luminescence activity of the 19 kDa protein from Oplophorus luciferase; assay type: biochemical; settings: measured for 60 seconds, coelenterazine = 100
T3 construct: made in house
T3 sequence (Q9GV45 28-196): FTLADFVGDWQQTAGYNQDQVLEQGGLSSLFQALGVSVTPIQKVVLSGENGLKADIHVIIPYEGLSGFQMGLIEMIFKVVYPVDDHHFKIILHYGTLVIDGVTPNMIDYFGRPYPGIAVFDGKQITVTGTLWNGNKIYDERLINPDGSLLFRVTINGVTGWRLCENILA
Protocol: The 19 kDa protein from Oplophorus luciferase was purified by the method described in Inouye, S. and Sasaki, S., Protein Express. Purif. (2007) 56: 261-268 and provided for use.
as §1, with “of the 19 kDa protein (2.3 mg/ml) from Oplophorus” for “of Renilla”, “luciferase containing 1 mM DTT” for “luciferase (0.45 mg/ml)”, “luminescence reaction, and the” for “luminescence reaction. The”, “for 60” for “for 10”, “measurement” for “measurement of luminescence activity”

[10] = target: T1, apoaequorin; assay: Luminescence spectra of semi-synthetic aequorins; assay type: biochemical; settings: semi-synthetic aequorin, calcium added, 22 to 25° C.
Protocol: In a quartz cell with light path length of 10 mm, 1 ml of 50 mM Tris-HCl (pH 7.6) containing 1 mM EDTA and 100 μl (100 μg protein) of a solution of the regenerated semi-synthetic aequorin were charged. Next, 100 μl of 50 mM Tris-HCl (pH 7.6) containing 0.1 ml of 10 mM calcium chloride solution was added thereto to start the luminescence reaction. The spectra were measured on a spectrofluorimeter (FP-6500, manufactured by Jasco Co., Ltd.) with the excitation light source turned off. The measurement conditions were bandwidth: 20 nm, response: 0.5 second, scan speed: 2000 nm/min and 22 to 25° C. The luminescence spectra measured were corrected.

[11] = tested on: Gaussia luciferase; assay: Substrate specificity and luminescence activity of Gaussia luciferase; assay type: biochemical; settings: measured for 10 seconds, coelenterazine = 100
Protocol: Gaussia luciferase was purified by the method described in Japanese Patent Application KOKAI No. 2008-099669 and provided for use. After 1 μl of Gaussia luciferase (0.024 mg/ml) was dissolved in 100 μl of phosphate buffered saline (manufactured by Sigma Inc.) containing 0.01% Tween 20 (manufactured by Sigma Inc.) and 10 mM EDTA, 1 μl of a solution of coelenterazine or its analogue (1 μg/μl) in ethanol was mixed with the solution to start the luminescence reaction. The luminescence activity was measured for 10 seconds on a luminometer luminescencer-PSN AB2200 (manufactured by Atto Co., Ltd.). The luminescence activity was determined by repeating the measurement described above 3 times and expressed in terms of the maximum luminescence intensity (Imax) of luminescence activity.

[12] = 10 mM CaCl2 buffer pH 7.6, excitation 337 nm
[13] = 10 mM EDTA buffer pH 7.6, excitation 337 nm

T1 sequence (P07164 other isoform, or with tags, fused parts or gaps with the stated changes): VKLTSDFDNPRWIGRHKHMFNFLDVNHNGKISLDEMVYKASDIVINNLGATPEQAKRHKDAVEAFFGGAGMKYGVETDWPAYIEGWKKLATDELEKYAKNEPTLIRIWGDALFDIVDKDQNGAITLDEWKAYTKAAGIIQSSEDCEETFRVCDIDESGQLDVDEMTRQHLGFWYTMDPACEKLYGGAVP

SMILES	Fluorescence intensity [1]	Semi-synthetic BFP (Buffer containing CaCl2) Maximum fluorescence wavelength λmax (nm) [1]	Coelenteramide (Buffer containing CaCl2) Fluorescence intensity (rlu) [2, 12]	Coelenteramide (Buffer containing CaCl2) Maximum fluorescence wavelength λmax (nm) [2, 12]	Coelenteramide (EDTA-containing buffer) Fluorescence intensity (rlu) [2, 13]	Coelenteramide (EDTA-containing buffer) Maximum fluorescence wavelength λmax (nm) [2, 13]	Semi-synthetic gFP (EDTA-containing buffer) Fluorescence intensity (rlu) [3]	Semi-synthetic gFP (EDTA-containing buffer) Maximum fluorescence wavelength λmax (nm) [3]	Luciferase activity of semi-synthetic BFP (%) [4]	calcium standard curve with semi-synthetic aequorin, in words [5]	Luminescence activity Imax (%) [6]	half decay time of luminescence compared to coelenterazine (native aequorin), in words [7]	Half decay time [7]	Maximum fluorescence wavelength λmax (nm) [8]	Relative fluorescence intensity (rlu) [8]	fluorescence spectra of fluorescent proteins versus emission spectra of semi-synthetic aequorins, in words [8]	Luminescence activity Imax (%) [9]	Maximum luminescence wavelength λmax (nm) [10]	Luminescence activity Imax (%) [11]
O=C(Cc1ccc(O)cc1)Nc1ncc(-c2ccc(O)cc2)nc1Cc1ccccc1 [Coelenteramide]	151.2 rlu	468.5 nm	5.9 rlu	457.0 nm	4.6 rlu	458.0 nm	165.2 rlu	482.5 nm	100.0%	–	–	–	–	–	–	–	–	–	–
O=c1c(Cc2ccc(O)cc2)nc2c(-c3cc4ccccc4s3)[nH]c(-c3ccc(O)cc3)cn1-2 [Compound 3h, 8-(Benzo[b]thiophen-2-yl)-2-(4-hydroxybenzyl)-6-(4-hydroxyphenyl)imidazo[1,2-a]pyrazin-3(7H)-one]	–	–	–	–	–	–	–	–	–	calcium standard curve can be prepared	0.00%	longer half decay time	1.71 s	537.0 nm	58.7 rlu	different luminescence spectra and fluorescence spectra	0.07%	532.5 nm	0.00%
O=c1c(Cc2ccc(O)cc2)nc2c(-c3ccc(O)cc3)[nH]c(-c3ccc(O)cc3)cn1-2 [Compound 3j, 2-(4-Hydroxybenzyl)-6,8-bis(4-hydroxyphenyl)imidazo[1,2-a]pyrazin-3(7H)-one]	–	–	–	–	–	–	–	–	–	calcium standard curve can be prepared	0.03%	markedly prolonged; also recorded: longer half decay time	16.8 s	580.0 nm	13.3 rlu	markedly different; also recorded: different luminescence spectra and fluorescence spectra	0.2%	457.5 nm	0.01%

From patent US9056840B2, “Coelenterazine analogues and coelenteramide analogues” (JNC Corporation, priority 2010, dated 2015)
